Consider 16 compounds from ChEMBL document CHEMBL1201862, “PubChem BioAssay data set” (2004).

The target in assay [1] is T1, DNA repair and recombination protein RAD54-like (Homo sapiens, UniProt Q92698).
T1 sequence (Q92698 whole entry): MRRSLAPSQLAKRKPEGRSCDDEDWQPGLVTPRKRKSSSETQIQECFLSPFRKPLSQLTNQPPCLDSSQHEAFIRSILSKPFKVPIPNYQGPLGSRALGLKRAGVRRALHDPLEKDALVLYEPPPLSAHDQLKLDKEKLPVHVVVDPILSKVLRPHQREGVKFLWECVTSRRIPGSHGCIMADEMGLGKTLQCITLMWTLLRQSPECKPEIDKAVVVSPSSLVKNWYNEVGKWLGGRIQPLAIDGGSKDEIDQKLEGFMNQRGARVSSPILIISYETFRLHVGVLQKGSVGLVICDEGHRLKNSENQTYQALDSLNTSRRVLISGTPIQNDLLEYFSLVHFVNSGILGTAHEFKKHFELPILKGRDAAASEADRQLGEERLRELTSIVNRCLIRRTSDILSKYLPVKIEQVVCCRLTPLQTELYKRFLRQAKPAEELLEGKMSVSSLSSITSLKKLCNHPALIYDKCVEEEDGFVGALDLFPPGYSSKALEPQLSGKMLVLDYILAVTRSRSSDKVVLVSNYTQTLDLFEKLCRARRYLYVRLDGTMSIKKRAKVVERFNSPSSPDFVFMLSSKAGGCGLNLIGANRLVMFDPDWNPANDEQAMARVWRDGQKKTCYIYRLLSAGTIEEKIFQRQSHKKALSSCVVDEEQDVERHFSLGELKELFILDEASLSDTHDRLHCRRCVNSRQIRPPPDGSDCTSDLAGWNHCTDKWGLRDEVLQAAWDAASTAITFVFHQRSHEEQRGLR
Put plainly: RAD54 Holliday junction migration blockers – biochemical, fluorescence, cherry-picked samples, dose series, confirmation (AID 651657). The format is functional.

The target in assay [2] is Glucose-6-phosphate 1-dehydrogenase (Homo sapiens, UniProt P11413). Put plainly: inhibition of Homo sapiens G6PD, dose series – biochemical, fluorescence, selectivity assay for P. falciparum G6PD inhibitor project, dose response (AID 504792). It is filed as functional.
Glucose-6-phosphate 1-dehydrogenase, sequence (P11413 whole entry): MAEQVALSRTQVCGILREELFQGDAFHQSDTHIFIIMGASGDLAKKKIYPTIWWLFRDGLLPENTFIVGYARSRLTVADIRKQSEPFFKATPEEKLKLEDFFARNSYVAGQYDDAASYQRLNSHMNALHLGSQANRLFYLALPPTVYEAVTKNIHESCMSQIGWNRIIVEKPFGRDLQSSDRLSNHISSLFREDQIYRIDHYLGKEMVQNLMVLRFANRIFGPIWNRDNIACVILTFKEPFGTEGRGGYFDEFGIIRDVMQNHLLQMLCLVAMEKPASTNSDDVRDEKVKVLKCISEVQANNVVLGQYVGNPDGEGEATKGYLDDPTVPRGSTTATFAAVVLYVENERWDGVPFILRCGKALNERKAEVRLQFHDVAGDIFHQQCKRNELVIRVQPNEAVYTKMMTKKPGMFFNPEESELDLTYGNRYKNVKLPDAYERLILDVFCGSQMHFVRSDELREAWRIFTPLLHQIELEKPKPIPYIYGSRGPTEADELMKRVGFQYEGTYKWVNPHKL
In a further assay the target is Genome polyprotein (dengue virus type 2, UniProt P29990). Kind of assay: flavivirus cap methylation enzyme inhibition – biochemical, confirmation dose response, primary screen (AID 588689). It is filed as functional.
Genome polyprotein, sequence (P29990 2492-3391 limits assumed): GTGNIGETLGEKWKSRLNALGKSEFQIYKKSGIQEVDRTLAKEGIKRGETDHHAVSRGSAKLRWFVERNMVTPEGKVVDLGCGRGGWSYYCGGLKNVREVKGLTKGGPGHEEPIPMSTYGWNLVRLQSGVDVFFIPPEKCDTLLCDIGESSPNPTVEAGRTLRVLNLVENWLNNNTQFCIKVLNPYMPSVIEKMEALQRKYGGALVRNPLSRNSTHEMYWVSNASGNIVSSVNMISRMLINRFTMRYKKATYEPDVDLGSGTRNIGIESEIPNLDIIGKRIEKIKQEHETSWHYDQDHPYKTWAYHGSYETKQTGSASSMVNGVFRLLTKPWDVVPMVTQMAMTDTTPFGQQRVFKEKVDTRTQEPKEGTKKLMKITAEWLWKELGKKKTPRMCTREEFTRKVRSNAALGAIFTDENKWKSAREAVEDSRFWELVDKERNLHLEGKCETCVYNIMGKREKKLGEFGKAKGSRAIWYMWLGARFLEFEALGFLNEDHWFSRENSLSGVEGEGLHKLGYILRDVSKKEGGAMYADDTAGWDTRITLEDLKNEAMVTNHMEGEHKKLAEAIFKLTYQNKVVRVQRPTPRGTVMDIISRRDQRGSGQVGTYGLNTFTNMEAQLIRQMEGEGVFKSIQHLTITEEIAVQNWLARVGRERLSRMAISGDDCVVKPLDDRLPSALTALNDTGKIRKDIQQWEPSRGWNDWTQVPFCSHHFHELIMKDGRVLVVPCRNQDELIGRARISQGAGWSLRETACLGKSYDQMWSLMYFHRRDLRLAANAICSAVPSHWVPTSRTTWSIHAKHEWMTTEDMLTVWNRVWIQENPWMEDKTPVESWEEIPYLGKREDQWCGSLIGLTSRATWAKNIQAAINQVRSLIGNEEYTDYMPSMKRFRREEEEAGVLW
The target of assay [3] is T2, Polyadenylate-binding protein 1 (Homo sapiens, UniProt P11940). Put plainly: MLLE binding blockers, Cy5 peptide tracer – biochemical, fluorescence polarization, Cy5-PAM2 peptide, secondary, miRNA deadenylation inhibitor project, dose response (AID 602260). To be noted: read-out: IC50_Mean. It is filed as functional. For orientation: In fluorescence polarisation assays a small probe gives low polarisation when free and higher when bound to something large.
T2 sequence (P11940 whole entry): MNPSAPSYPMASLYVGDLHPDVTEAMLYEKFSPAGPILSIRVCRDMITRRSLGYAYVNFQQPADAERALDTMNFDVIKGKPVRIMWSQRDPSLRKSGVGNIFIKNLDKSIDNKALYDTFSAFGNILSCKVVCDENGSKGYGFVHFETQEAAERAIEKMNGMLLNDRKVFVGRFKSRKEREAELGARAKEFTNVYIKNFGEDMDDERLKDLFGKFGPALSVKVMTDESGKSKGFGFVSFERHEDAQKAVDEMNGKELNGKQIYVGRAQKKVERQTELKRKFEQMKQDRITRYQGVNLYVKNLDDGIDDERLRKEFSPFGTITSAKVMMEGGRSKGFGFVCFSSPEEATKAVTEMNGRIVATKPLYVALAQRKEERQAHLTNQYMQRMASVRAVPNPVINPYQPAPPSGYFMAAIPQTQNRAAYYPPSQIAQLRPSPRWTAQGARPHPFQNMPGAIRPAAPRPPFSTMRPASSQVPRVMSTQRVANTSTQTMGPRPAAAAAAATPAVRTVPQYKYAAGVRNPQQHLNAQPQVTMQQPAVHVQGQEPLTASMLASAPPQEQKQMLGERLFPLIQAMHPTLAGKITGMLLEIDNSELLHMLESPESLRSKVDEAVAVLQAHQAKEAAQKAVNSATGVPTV

In assay [4] the target is T2, Polyadenylate-binding protein 1. Kind of assay: MLLE domain peptide-binding blockers, IC50 – biochemical, fluorescence polarization, FITC-PAM2 peptide, dose response (AID 602259). To be noted: read-out: IC50_Mean. It is filed as functional.
The next assay has as its target Large T antigen (Simian virus 40, UniProt P03070). It is filed as functional, Betapolyomavirus macacae.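 Also: Confirmatory-stage PubChem screen for compounds that inhibit SV40 T antigen.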
Assay [5] has as its system Streptococcus sp. 'group A'. Kind of assay: Streptococcus pyogenes SK(-)GAS viability under kanamycin – luminescence, BacTiterGlo, confirmation, counter-screen for streptokinase expression inhibitor project, dose response (AID 1900). The format is functional, organism-based. (In general: The purpose of a counterscreen is to sort out artefacts and off-target activity.)

The next assay deals with Streptococcus. Kind of assay: GAS UMAA2166 growth inhibition – luminescence, BacTiterGlo, counter-screen for streptokinase expression inhibitor project, dose response (AID 1915).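 Also: potency for reduction of bacterial viability or growth.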 It is filed as functional, organism-based.
Assay [6] is described as follows: Luminescence Cell-Based Dose Retest to Confirm Inhibitors of Cancer Stem Cells. [Related pubchem assays (depositor defined):AID2717, AID2721]. To be noted: Homo sapiens. The format is functional.
Assay [7] in a line: Counterscreen for inhibitors of Trypanosoma brucei methionyl tRNA synthetase (MetRS): Luminescence-based cell-based high throughput dose response assay to identify compounds that are cytotoxic to Jurkat human T lymphocyte cells. It is filed as functional.
For assay [8], the target named is T3, Sentrin-specific protease 8 (Homo sapiens, UniProt Q96LD8).
T3 sequence (Q96LD8 whole entry): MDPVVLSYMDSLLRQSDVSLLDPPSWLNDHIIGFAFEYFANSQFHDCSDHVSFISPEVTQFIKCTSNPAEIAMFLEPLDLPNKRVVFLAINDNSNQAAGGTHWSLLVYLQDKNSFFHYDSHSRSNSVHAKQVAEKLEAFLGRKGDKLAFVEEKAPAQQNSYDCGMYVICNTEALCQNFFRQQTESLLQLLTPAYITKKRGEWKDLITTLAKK
It is filed as functional.

In assay [9] the target is T3, Sentrin-specific protease 8. It is filed as functional. This is another data set of the same source.
Assay [10] deals with BJ. Kind of assay: BJ-TERT fibroblast viability loss – cell-based, RAS-independent, luminescence, dose response (AID 1933). It is filed as functional. To be noted: Homo sapiens.
The subject of assay [11] is BJ. Put plainly: cells. The format is functional, cell-based. To be noted: Homo sapiens.
Assay [12] concerns BJ. Put plainly: BJ-TERT-LT-ST fibroblast viability loss – cell-based, RAS-independent, luminescence, dose response (AID 1935).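 Also: BJ fibroblasts immortalized with TERT plus LT and ST oncogenes.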 The format is functional. To be noted: Homo sapiens.
Assay [13] is described as follows: DRD fibroblast viability loss – cell-based, non-viral oncogenic, luminescence, dose response (AID 1934). The format is functional. To be noted: Homo sapiens.
Assay [14] addresses T4, Ubiquitin-conjugating enzyme E2 N (Homo sapiens, UniProt P61088).
T4 sequence (P61088 whole entry): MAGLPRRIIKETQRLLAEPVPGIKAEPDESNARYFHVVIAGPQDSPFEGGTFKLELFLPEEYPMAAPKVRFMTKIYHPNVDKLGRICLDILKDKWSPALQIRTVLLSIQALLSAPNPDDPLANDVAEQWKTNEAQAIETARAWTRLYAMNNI
The format is functional.

In assay [15] the test system is BJ. Put plainly: growth inhibition of engineered Ras-driven BJ cells – cell-based, alamar blue fluorescence, cherrypicked samples, dose response (AID 2631).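 Also: confirmatory dose-response assay in RAS-dependent BJ fibroblasts engineered with TERT, LT and ST, with cytotoxicity read by fluorescence.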 The format is functional. To be noted: Homo sapiens. For orientation: The colour change of resazurin is a common sign of viable cells or microbes.
Assay [16] concerns the target T5, DNA repair protein RAD52 homolog (Homo sapiens, UniProt P43351).
T5 sequence (P43351 whole entry): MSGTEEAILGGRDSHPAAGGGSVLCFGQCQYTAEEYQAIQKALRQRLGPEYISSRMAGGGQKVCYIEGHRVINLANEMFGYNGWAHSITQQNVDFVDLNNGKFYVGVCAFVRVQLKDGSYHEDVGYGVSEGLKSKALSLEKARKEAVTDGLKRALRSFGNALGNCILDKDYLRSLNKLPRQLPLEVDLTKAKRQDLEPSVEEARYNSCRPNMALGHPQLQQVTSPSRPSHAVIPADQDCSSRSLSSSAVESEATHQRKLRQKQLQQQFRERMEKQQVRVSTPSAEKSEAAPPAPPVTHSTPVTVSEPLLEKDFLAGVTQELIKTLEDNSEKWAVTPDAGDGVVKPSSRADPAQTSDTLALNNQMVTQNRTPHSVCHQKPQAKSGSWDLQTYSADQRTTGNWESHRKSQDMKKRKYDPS
The format is functional, biochemical.

For assay [17], the target named is DNA dC->dU-editing enzyme APOBEC-3A (Homo sapiens, UniProt P31941). Kind of assay: A3A deaminase inhibition for selectivity – biochemical, dose response (AID 504722). It is filed as functional.
DNA dC->dU-editing enzyme APOBEC-3A, sequence (P31941 whole entry): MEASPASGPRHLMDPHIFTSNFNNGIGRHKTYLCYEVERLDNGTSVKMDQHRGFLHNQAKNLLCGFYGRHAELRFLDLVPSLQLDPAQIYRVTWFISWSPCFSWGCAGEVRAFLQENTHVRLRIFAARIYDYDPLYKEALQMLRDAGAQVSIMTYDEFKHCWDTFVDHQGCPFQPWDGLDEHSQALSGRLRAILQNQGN
The target in assay [18] is DNA dC->dU-editing enzyme APOBEC-3G (Homo sapiens, UniProt Q9HC16). Kind of assay: Dose Response confirmation of small molecule APOBEC3G DNA Deaminase Inhibitors via a fluorescence-based single-stranded DNA deaminase assay. [Related pubchem assays (depositor defined):AID493012, AID493028]. It is filed as functional.
DNA dC->dU-editing enzyme APOBEC-3G, sequence (Q9HC16 whole entry): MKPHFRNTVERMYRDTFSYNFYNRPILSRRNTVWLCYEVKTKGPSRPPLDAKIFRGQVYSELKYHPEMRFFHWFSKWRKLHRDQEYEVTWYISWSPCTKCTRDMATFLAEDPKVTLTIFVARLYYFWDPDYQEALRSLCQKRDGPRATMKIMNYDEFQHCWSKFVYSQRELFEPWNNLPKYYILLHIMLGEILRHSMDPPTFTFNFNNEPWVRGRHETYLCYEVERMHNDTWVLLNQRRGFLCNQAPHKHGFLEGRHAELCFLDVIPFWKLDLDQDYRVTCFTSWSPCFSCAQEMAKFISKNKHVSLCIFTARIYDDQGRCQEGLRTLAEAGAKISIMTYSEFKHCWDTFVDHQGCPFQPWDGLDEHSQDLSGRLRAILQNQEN
Assay [19] addresses T6, Short transient receptor potential channel 4 (Mus musculus, UniProt Q9QUQ5).
T6 sequence (Q9QUQ5 whole entry): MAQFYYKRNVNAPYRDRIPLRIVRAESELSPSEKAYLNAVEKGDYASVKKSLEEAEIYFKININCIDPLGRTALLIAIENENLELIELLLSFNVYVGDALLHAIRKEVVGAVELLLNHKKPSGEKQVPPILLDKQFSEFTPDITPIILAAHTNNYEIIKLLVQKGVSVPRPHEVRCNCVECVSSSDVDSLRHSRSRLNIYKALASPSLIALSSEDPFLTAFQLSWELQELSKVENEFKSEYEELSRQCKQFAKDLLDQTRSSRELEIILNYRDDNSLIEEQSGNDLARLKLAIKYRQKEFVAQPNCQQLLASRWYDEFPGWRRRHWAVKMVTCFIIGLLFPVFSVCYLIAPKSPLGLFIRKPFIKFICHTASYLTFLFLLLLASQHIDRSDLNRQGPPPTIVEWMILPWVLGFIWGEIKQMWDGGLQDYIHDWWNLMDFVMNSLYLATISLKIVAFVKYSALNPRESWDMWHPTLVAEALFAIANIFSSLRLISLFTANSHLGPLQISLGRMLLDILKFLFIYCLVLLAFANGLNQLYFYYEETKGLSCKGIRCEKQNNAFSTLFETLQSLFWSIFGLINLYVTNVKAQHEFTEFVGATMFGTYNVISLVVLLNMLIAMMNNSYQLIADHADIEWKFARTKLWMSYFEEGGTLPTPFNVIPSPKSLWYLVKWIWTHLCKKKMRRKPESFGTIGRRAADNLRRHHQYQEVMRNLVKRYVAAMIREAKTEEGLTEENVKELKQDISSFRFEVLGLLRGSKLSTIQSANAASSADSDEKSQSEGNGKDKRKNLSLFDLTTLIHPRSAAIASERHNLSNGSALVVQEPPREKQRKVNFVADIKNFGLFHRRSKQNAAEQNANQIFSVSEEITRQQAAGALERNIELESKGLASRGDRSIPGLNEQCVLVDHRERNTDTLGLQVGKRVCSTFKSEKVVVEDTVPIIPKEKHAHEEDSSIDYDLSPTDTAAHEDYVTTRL
Put plainly: block of DAMGO-driven TRPC4 calcium entry – cell-based, HEK293 TRPC4/mu-opioid, Fluo-4 calcium, dose response (AID 434942).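 Also: potency of inhibitors blocking the TRPC4 calcium response.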 The format is functional.

The subject of the next assay is INS1. Kind of assay: INS-1E survival protection against cytokine death – cell-based, luminescence, retest, dose response (AID 449756).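 Also: cell death triggered by IL-1 beta plus TNF-alpha plus IFN-gamma mixture; protective hits raise ATP signal compared with cytokine alone wells.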 It is filed as functional. To be noted: Rattus norvegicus.

The structures appear in SMILES notation. Calls of active or inactive are those of the source.

Large T antigen, sequence (P03070 whole entry): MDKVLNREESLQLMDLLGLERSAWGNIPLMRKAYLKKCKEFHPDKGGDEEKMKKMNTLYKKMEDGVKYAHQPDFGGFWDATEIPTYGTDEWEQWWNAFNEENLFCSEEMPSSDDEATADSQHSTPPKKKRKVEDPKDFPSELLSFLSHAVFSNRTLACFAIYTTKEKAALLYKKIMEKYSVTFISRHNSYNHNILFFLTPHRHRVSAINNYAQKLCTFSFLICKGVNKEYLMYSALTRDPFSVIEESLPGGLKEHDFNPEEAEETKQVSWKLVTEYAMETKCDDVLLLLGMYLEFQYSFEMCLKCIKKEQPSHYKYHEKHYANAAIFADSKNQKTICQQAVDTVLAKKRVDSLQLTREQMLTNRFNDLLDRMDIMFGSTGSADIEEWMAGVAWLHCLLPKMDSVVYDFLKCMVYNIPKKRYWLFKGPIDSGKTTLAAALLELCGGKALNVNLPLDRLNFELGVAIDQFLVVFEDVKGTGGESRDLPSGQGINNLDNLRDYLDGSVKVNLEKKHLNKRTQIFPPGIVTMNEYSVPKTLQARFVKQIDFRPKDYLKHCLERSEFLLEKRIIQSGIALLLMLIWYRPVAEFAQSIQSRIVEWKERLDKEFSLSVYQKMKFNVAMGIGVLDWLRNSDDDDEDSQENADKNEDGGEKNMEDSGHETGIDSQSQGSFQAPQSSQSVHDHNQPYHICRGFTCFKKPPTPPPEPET

Turning to `CCOC(=O)Nc1c2ccccc2nc2ccccc12`, the AC50 in assay [1] is 54.8 µM (active).
With `Oc1cc(-n2cccn2)c(O)cc1-n1cccn1`, the IC50 in assay [2] was 33 µM (inactive); at Genome polyprotein, 79.2 µM (active); in assay [3], > 66 µM (inactive); in [4], > 66 µM (inactive).
Consider `COc1ccc(N2CSC3=C(C#N)C(c4ccc(OC)c(OC)c4)CC(=O)N3C2)c(OC)c1` (stereo not drawn), for which the IC50 on Large T antigen is 52.7 µM (active); in [2], > 80 µM (inactive).
Regarding `CC(CNC(S)=Nc1cc(F)cc(F)c1)CSc1ccc(Cl)cc1` (stereo not drawn), the EC50 is 8.3 µM (active) in [5] and 36 µM (active) in the assay on Streptococcus. Besides, the AC50 in assay [6] is 6.24 µM (active). Also, in assay [7], the IC50 is 27.8 µM (inactive).
For `CCS(=O)(=O)N1CCC(C(=O)N2CCc3ccccc3C2)CC1`, the IC50 in [8] was > 100 µM (inactive); in assay [9] it was 8.89 µM (active).
In the case of `O=C(CCCCCN1C(=O)c2cccc3cccc(c23)C1=O)NCc1cccnc1`, the EC50 in the assay with BJ [10] is > 150 µM (not active); in the assay with BJ [11] it was 3.59 µM (inconclusive); in the assay with BJ [12], > 150 µM (inconclusive); in assay [13], > 150 µM (not active); with BJ [15] it was > 66.7 µM (inactive). Besides, the IC50 in assay [14] was > 20 µM (inactive).
For the compound `CCN1CCN(c2cc(C)c3cc(NC(S)=NCCCN4CCc5ccccc5C4)ccc3n2)CC1`, the AC50 is 20.6 µM (active) in assay [1] and 3 µM (active) in assay [16].
With `N#CC1=C2SCN(c3ccccc3)CN2C(=O)CC1c1cccs1` (stereo not drawn), the IC50 was > 100 µM (inactive) in [17] and 7.25 µM (active) in assay [18].
As for `COc1ccc(OC)c(Nc2nc(NCCCN(C)C)nc(N)c2[N+](=O)[O-])c1`, the AC50 in [1] was 20.2 µM (active); in [16], 7.02 µM (active).
Turning to `CCn1c(-c2cccc(Cl)c2)n[nH]c1=S`, the IC50 was > 100 µM (inactive) in [17] and 6.09 µM (active) in assay [18].
`Cc1ccc(-c2n[nH]c(=S)n2C)cc1Cl`: the results for the IC50 in [17] and in assay [18] were > 100 µM (inactive) and 4.34 µM (active), respectively.
On to `CCOC(=O)C1=NN(c2ccccc2C)C2=NC(C)=C(C(=O)OC)C(c3cccc(OC)c3)N12` (stereo not drawn), for which the EC50 in assay [19] was 2.99 µM (active).
As to `Brc1ccccc1CN1CCN(Cc2c[nH]c3ccccc23)CC1`, the EC50 in assay [19] was 0.0747 µM (active). Further, the AC50 in the assay with INS1 is 2.16 µM (active).
Turning to `O=C(CN1C(=O)CSC1=O)N1CCc2ccccc2C1`, the IC50 was 80.8 µM (inactive) in assay [8] and 10.6 µM (active) in assay [9].
Turning to `Cc1cnc(C(=O)Nc2c(-c3ccccc3)[nH][nH]c2=O)cn1`, the IC50 in [8] is 20.3 µM (active); in assay [9], 30.3 µM (active).
For the compound `Sc1nnc(-c2cccnc2)n1/N=C/c1ccccc1`, the IC50 in assay [17] was > 100 µM (inactive); in assay [18], 2.02 µM (active).

A word on the AC50: it is the midpoint of the concentration-response curve, whichever way the signal moves. What is called EC50 is the midpoint of the concentration-response curve.
